From PubChem BioAssay (NCI)
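Following 48 hours of exposure in 96-well plates, responses at five concentrations were used to interpolate endpoints linearly. Abbreviation: GI50, concentration required for 50% inhibition of growth. TGI is the concentration that stops growth completely.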

Key:
Experiment in all cases: growth of human tumour cells (NCI), 48 h
HOP-92 NSCLC = system: HOP-92 NSCLC
SK-OV-3 ovarian = system: SK-OV-3 ovarian
SK-MEL-28 melanoma = system: SK-MEL-28 melanoma
KM12 colon = system: KM12 colon
MALME-3M melanoma = system: MALME-3M melanoma
SW-620 colon = system: SW-620 colon
DU-145 prostate = system: DU-145 prostate
MOLT-4 leukemia = system: MOLT-4 leukemia
TK-10 renal = system: TK-10 renal
CCRF-CEM leukemia = system: CCRF-CEM leukemia

| Compound | GI50 (HOP-92 NSCLC) | TGI (HOP-92 NSCLC) | GI50 (SK-OV-3 ovarian) | TGI (SK-OV-3 ovarian) | GI50 (SK-MEL-28 melanoma) | TGI (SK-MEL-28 melanoma) | GI50 (KM12 colon) | TGI (KM12 colon) | GI50 (MALME-3M melanoma) | TGI (MALME-3M melanoma) | GI50 (SW-620 colon) | TGI (SW-620 colon) | GI50 (DU-145 prostate) | TGI (DU-145 prostate) | GI50 (MOLT-4 leukemia) | TGI (MOLT-4 leukemia) | GI50 (TK-10 renal) | TGI (TK-10 renal) | GI50 (CCRF-CEM leukemia) | TGI (CCRF-CEM leukemia) |
| --- | --- | --- | --- | --- | --- | --- | --- | --- | --- | --- | --- | --- | --- | --- | --- | --- | --- | --- | --- | --- |
| Nc1ccc(C#Cc2ccccc2C#CCCCCO)cc1 | 15.5 µM | 32.1 µM | 18.1 µM | 34.7 µM | 9.31 µM | 21.9 µM | 15.9 µM | 33.4 µM | 24.8 µM | 43.9 µM | 17.6 µM | 33.1 µM | 18.4 µM | 35.1 µM | 16.5 µM | 35.1 µM | 21.6 µM | 46.5 µM | 13.2 µM | 28.1 µM |
| CN(C(=O)C(C)(C)C)c1ccccc1I(=O)=O | 15.9 µM | 96.7 µM | > 100 µM | > 100 µM | 92.5 µM | > 100 µM | > 100 µM | > 100 µM | 27.4 µM | > 100 µM | > 100 µM | > 100 µM | > 100 µM | > 100 µM | 3.45 µM | > 100 µM | > 100 µM | > 100 µM | 8.62 µM | 31.6 µM |
| CCN1CCN(C(=O)[C@]23CC[C@@H](C)[C@H](C)[C@@H]2C2=CC[C@@H]4[C@@]5(C)CCC(=O)C(C)(C)[C@@H]5CC[C@@]4(C)[C@]2(C)CC3)CC1 | 0.713 µM | 2.06 µM | 1.51 µM | 4.83 µM | 0.889 µM | 1.7 µM | 1.03 µM | 2.22 µM | 0.807 µM | 1.51 µM | 0.902 µM | 1.76 µM | 1.67 µM | 5.62 µM | 0.809 µM | 1.99 µM | 1.27 µM | 4.14 µM | 0.976 µM | 2.74 µM |
| Cc1ccsc1C(NC(=O)c1ccccc1)c1cc(Cl)c2cccnc2c1O (stereo not given) | 0.442 µM | 7.45 µM | 0.617 µM | 7.96 µM | 0.688 µM | 18.9 µM | 0.493 µM | 16 µM | 1.1 µM | 13.9 µM | 0.4 µM | 15 µM | 0.869 µM | 14.2 µM | 0.622 µM | 34.6 µM | 0.579 µM | 12.6 µM | 0.48 µM | 39 µM |
| CC(C)[C@@H](C(=O)O[C@@H]1/C=C/C(=O)O[C@@H](C)CCC/C=C/[C@@H]2C[C@H](O)C[C@H]21)N(C)C | 0.0403 µM | 0.0954 µM | 23.8 µM | > 96 µM | 6.03 µM | 23.5 µM | 2.91 µM | 10.2 µM | 3.89 µM | 22 µM | 7.03 µM | 20.7 µM | 29.4 µM | > 100 µM | 15.9 µM | 42.8 µM | 12.4 µM | 51.4 µM | 7.84 µM | 35.1 µM |
| CC1=CC2(C)/C=C(C)/C=C\CC(O)/C=C3/C=CC(=C4C(=O)OC2(CC1C)C4=O)OC3 (stereo not given) | 0.524 µM | 1.54 µM | 19.4 µM | 47.3 µM | 1.6 µM | 3.33 µM | 3.17 µM | 10.5 µM | 2.14 µM | 5.13 µM | 0.512 µM | 2.72 µM | 1.81 µM | 3.59 µM | 0.47 µM | > 20.4 µM | 1.54 µM | 3.46 µM | 0.673 µM | 7.95 µM |
| Clc1ccc2c(NC3CCC(N4CCCCC4)CC3)ccnc2c1 (stereo not given) | – | 29.9 µM | – | > 100 µM | – | 36.8 µM | – | 51.9 µM | – | 36.1 µM | – | > 100 µM | – | > 100 µM | – | > 100 µM | – | 48.8 µM | – | > 100 µM |
| COc1ccc(C(=O)/C=C/c2ccc(OCc3cccc(C(F)(F)F)c3)c(OC)c2)cc1OC | 142 µM | > 1000 µM | 221 µM | > 1000 µM | 262 µM | > 1000 µM | 55.3 µM | > 1000 µM | 271 µM | > 1000 µM | 49.7 µM | > 1000 µM | 72.6 µM | > 1000 µM | 27.7 µM | > 1000 µM | 397 µM | > 1000 µM | 38.8 µM | > 1000 µM |
| C=CCc1c(O)c(C(=O)/C=C/c2ccc(Cl)cc2)c(OC)c2ccoc12 | 1.69 µM | 5.94 µM | 5.96 µM | 19.2 µM | 2.32 µM | 5.53 µM | 3.72 µM | 13 µM | 2.74 µM | 8.51 µM | 2.56 µM | 6.86 µM | 3.85 µM | 18.1 µM | 2.61 µM | > 100 µM | 3.62 µM | 12.9 µM | 3.33 µM | > 100 µM |
